In paper PMC7451656, “In vitro and in vivo growth inhibitory activities of cryptolepine hydrate against several Babesia species and Theileria equi” (PLoS Neglected Tropical Diseases, 2020):

Assays:
equine RBCs / B. caballi = assay: Growth of B. caballi with CRY-treated horse RBCs; assay type: cell-based, Babesia caballi; details: equine RBCs pre-incubated with 1 and 10 μM CRY for 3 and 6 h, 4 days
Experimental: (§1) To investigate the hemolytic effect of CRY on host (bovine or equine) RBCs, bovine and equine RBCs were incubated with 1 and 10 μM of CRY for 3 and 6 h. The RBCs were washed thrice with phosphate-buffered saline (PBS) and mixed with B. divergens and B. caballi infected RBCs (iRBCs, recovered from −80 °C stock at our laboratory) harvested with a parasitemia of 8% and 3%, respectively and adjusted to 1% parasitemia with fresh RBCs. In a 24-well plate, 100 μl of iRBCs was added to 900 μl of complete medium and the parasite growth was monitored daily by microscopic examination of a Giemsa-stained blood smear for 4 days.

[1] = tested on: bovine RBCs / B. divergens; assay: Growth of B. divergens with CRY-treated bovine RBCs; assay type: cell-based, Babesia divergens; details: bovine RBCs pre-incubated with 1 and 10 μM CRY for 3 and 6 h, 4 days
Experimental: as §1

In the case of `Cn1c2c3ccccc3nc-2cc2ccccc21` [CRY, Cryptolepine hydrate], the “multiplication of B. caballi, CRY-treated RBCs versus normal RBCs” value (equine RBCs / B. caballi) is reported as “did not significantly differ” and the “multiplication of B. divergens, CRY-treated RBCs versus normal RBCs” value [1] is reported as “did not significantly differ”.
